The record followed here is PMC12271471, “Direct synthesis of mycophenolic acid aryl esters with antioxidant and antiproliferative properties” (Scientific Reports, 2025).

In one assay the test system is T-Jurkat cells. The assay is described as follows: VPD450 proliferation test (flow cytometry) on T-Jurkat cells. The class given is cell-based, human. The conditions noted are these: for EC50: Homo sapiens, T-Jurkat, 48 h, mean ± SD; for SI selectivity index T-Jurkat (IC50/EC50): ratio between IC50 (XTT) and EC50 (VPD450) on T-Jurkat cell line; for IS internal selectivity (EC50 PBMCs / EC50 T-Jurkat): ratio between VPD450 EC50 values for PBMCs and T-Jurkat cell line. As for the experimental part: These values indicate the concentration of any compound at which proliferation of PBMCs (healthy cells), and T-Jurkat cells (T-cell leukemia), is inhibited by 50% compared to the control. Cells were treated with the compounds for 72 h (PBMCs) or 48 h (T-Jurkat), followed by a […] VPD450 test. The results are presented in ESI Fig. S3 as proliferation curves concerning concentration.
ESI Figure 3. Concentration-dependent change in proliferation under the treatment of ester derivatives of MPA. (A) VPD450-labelled PBMCs were cultured in the presence of different concentrations (100; 50; 25; 10; 1; 0.1, and 0.01 μM) of MPA, MMF, and ester derivatives, and stimulated with magnetic beads coated with anti-CD3 and anti-CD28 antibodies for 72 hours. (B) VPD450-labelled T-Jurkat cells were cultured in the presence of different concentrations (100; 10; 1; 0.1 and 0.01 μM) of MPA and ester derivatives for 48 hours. The plots were separated based on the type of ester derivative (P or MP). Cell proliferation was analyzed using flow cytometry. The results are expressed […]
(1 picture or pasted object on this page, not shown here) […]
inhibited cell viability by more than 50%. Each experiment was conducted in triplicate, and the final […]
VPD450 dye-based in vitro cell proliferation test
PBMCs and T-Jurkat cells were washed twice with warm PBS (37°C), re-suspended in fresh PBS at a final concentration of 10-30∙10^6 cells/ml, and labelled with 1 µl of VPD450 (BD Biosciences) at 37°C for 15 minutes, with vortexing every 5 minutes to ensure uniform staining. Subsequently, cells were washed with PBS, then with the complete medium (X-VIVO20 for PBMCs and RPMI-1640 for T-Jurkat cells), next re-suspended in fresh complete medium and seeded into 96-well plates at a concentration of 1∙10^6 cells per well. PBMCs were additionally stimulated with magnetic beads coated with anti-CD3 and anti-CD28 antibodies (Invitrogen) at a 2:1 cell-to-bead ratio. To the experimental wells, 100 µl of the MPA derivatives were added to achieve final concentrations of 50, 25, 10, 5, 1, 0.1, and 0.01 µM. In parallel, control wells containing stained but unstimulated cells and stained, stimulated cells were prepared at the same concentration. Cell proliferation was analyzed using an LSRFortessa flow cytometer (BD Biosciences) and Kaluza C Flow Cytometry Analysis Software (Beckman Coulter). […]
Statistical analysis was conducted using GraphPad Prism 9 (GraphPad Software Inc).
Differences between MMF, MPA and its new derivatives were assessed using a two-tailed unpaired Student’s t-test, with statistical significance defined as p < 0.05. EC50 and IC50 values were determined by fitting data to a four-parameter non-linear regression model in GraphPad Prism 9. Statistical significance was evaluated using the t-test.
On the technique in general: A flow cytometer gives signals particle by particle.

The next assay concerns PBMCs. The assay is described as follows: XTT cytotoxicity test on PBMCs. Format: cell-based. The conditions noted are these: Homo sapiens, PBMC, 72 h (ESI: 96 h), viability, mean ± SD, read-out: Relative IC50 PBMCs (XTT). The procedure: Table 3 presents the IC50 values obtained from the XTT test on PBMCs and the T-Jurkat cell line, using MPA and MMF as standards. These values indicate the concentration of each compound required to reduce the viability of PBMCs (healthy cells) and T-Jurkat cells (T-cell leukemia) by 50% compared to the control. Cells were treated with compounds for 72 h (PBMCs) or 48 h (T-Jurkat), followed by a colorimetric XTT test. The results are illustrated in ESI Fig. S2 as a viability curve in relation to concentration.
Biological evaluation — PBMC and T-Jurkat cells […]
Human peripheral blood mononuclear cells (PBMCs) were isolated from buffy coats provided by anonymous, healthy volunteers with an average age of 35±4 years during routine transfusion procedure. These samples were received by the Authors from the Regional Centre for Blood Donation and Treatment in Gdańsk (Poland). […]
solely for PBMCs isolation. PBMCs were suspended in a complete X-VIVO medium, consisting of X-VIVO20, 10% heat-inactivated human AB serum, penicillin (100 U/ml), and streptomycin ([…]).
MPA derivatives preparation
To achieve the desired concentrations of the tested compounds, the substances were first dissolved in DMSO to reach a final concentration of 0.01 M. The solutions were then diluted in the appropriate additive-free medium (RPMI-1640 for T-Jurkat cells and X-VIVO20 for PBMCs) to obtain […]
Peripheral blood mononuclear cells were isolated by gradient centrifugation, as described previously. Buffy coats were diluted with phosphate-buffered saline (PBS, pH = 7.4, ThermoFisher Scientific) in a 1:1 ratio, layered at Ficoll-Paque™ PLUS (VWR International), and centrifuged at 800 × g for 20 minutes. The PBMC layer was collected and washed twice with PBS (1st wash: 600 × g for 10 minutes; 2nd wash: 600 × g for 5 minutes). Cell amount and viability were assessed using the Bio-Rad TC20™ automated cell counter combined with trypan blue staining.
XTT dye-based in vitro cytotoxicity test
The cytotoxic effects of mycophenolic acid (MPA) derivatives were assessed using an in vitro XTT-based assay (Roche). PBMCs in complete X-VIVO20 medium and T-Jurkat cells in complete RPMI-1640 medium were seeded into 96-well plates at a concentration of 5∙10^5 cells/50 µl per well. 50 µl of tested compounds were added to the experimental wells to achieve final concentrations of 50, 25, 10, 5, 1, 0.1, and 0.01 µM. The background control consisted of the medium without cells, while untreated cells served as the positive control. After incubating for 48 hours for T-Jurkat cells and 96 hours for PBMCs in a humidified atmosphere with 5% CO2 at 37°C, 50 µl of freshly prepared XTT reagent was added to all wells according to the manufacturer's instructions. The plates were then incubated for an additional 24 hours under the same conditions. The conversion of the water-soluble yellow XTT tetrazolium salt to orange formazan was quantified by measuring the optical density (OD) at 450 nm using an Agilent BioTek Epoch Microplate Spectrophotometer (Agilent Technologies), with a reference wavelength of 690 nm. The results were expressed as IC50 values for compounds that […]
inhibited cell viability by more than 50%. […]
PBMCs were suspended in a 15 mL centrifuge tube at a concentration of 10-30 × 10⁶ cells in 1 mL of PBS, then, 2 μL of 1 mM VPD 450 dye solution was added, incubated for 15 min at 37°C, washed with a 9-fold volume of warm PBS and centrifuged at 400 x g for 5 min. Then, the cells were suspended in 10 mL of X-VIVO medium with 10% FBS and centrifuged again at 400 x g for 5 min. After suspending the cells in the complete medium, the staining level was checked using flow cytometry. The cells thus obtained were stimulated with anti-CD3/anti-CD28 antibodies as described previously (see VPD450 dye-based in vitro cell proliferation test). To perform the GMP test, a proper amount of GMP was added to each well to reach its final concentration of 50 μM, and then incubated for 72 hours. Proliferative […]
A general note: Formazan colour is commonly taken as a measure of viable cells.

The EC50 is the midpoint of the concentration-response curve. Broadly, the IC50 is the concentration that inhibits the measured activity by half. Turning to `COc1ccccc1OC(=O)CC/C(C)=C/Cc1c(O)c2c(c(C)c1OC)COC2=O` [MP1], in the assay on T-Jurkat cells, the response was half-maximal at 780 ± 34 nM (EC50), the “SI selectivity index T-Jurkat (IC50/EC50)” value worked out at 1.259 and the “IS internal selectivity (EC50 PBMCs / EC50 T-Jurkat)” value was determined as 1.418. The IC50 in the assay on PBMCs stood at 14.78 ± 0.016 µM.
For `COc1c(C)c2c(c(O)c1C/C=C(\C)CCC(=O)Oc1ccc(CCC(C)=O)cc1)C(=O)OC2` [P7], in the assay on T-Jurkat cells, the EC50 was 2230 ± 44 nM, the “SI selectivity index T-Jurkat (IC50/EC50)” value is listed as 1.083 and the “IS internal selectivity (EC50 PBMCs / EC50 T-Jurkat)” value came to 0.470. Moreover, the IC50 in the assay with PBMCs turned out to be 50.294 ± 0.019 µM.
For the molecule `COc1c(C)c2c(c(O)c1C/C=C(\C)CCC(=O)OCCN1CCOCC1)C(=O)OC2` [MMF, mycophenolate mofetil, reference compound], in the assay on T-Jurkat cells, the concentration for a half-maximal effect (EC50) stood at 609 ± 30 nM, the “SI selectivity index T-Jurkat (IC50/EC50)” value is 1.216 and the “IS internal selectivity (EC50 PBMCs / EC50 T-Jurkat)” value was found to be 1.704. Further, the IC50 in the assay on PBMCs was 16.61 ± 0.041 µM.
The matching figures for `COc1c(C)c2c(c(O)c1C/C=C(\C)CCC(=O)Oc1cc(C)ccc1C(C)C)C(=O)OC2` [P2]: 4477 ± 33 nM, 0.552, 0.317 and 16.349 ± 0.01 µM.
The like results for `COc1cccc(OC)c1OC(=O)CC/C(C)=C/Cc1c(O)c2c(c(C)c1OC)COC2=O` [MP2] were, in that order, 2640 ± 35 nM, 0.662, 2.042 and 22.52 ± 0.039 µM.
`COc1c(C)c2c(c(O)c1C/C=C(\C)CCC(=O)Oc1ccc(C=O)cc1)C(=O)OC2` [P5]: in the assay on T-Jurkat cells, the EC50 stood at 2357 ± 23 nM, the “SI selectivity index T-Jurkat (IC50/EC50)” value is 0.671 and the “IS internal selectivity (EC50 PBMCs / EC50 T-Jurkat)” value is reported as 0.703. In addition, the IC50 in the assay with PBMCs was 9.948 ± 0.046 µM.
The like results for `COc1cc(C=O)cc(OC)c1OC(=O)CC/C(C)=C/Cc1c(O)c2c(c(C)c1OC)COC2=O` [MP3] were, in that order, 4458 ± 40 nM, 0.997, 3.083 and 10.59 ± 0.04 µM.
On to `COc1c(C)c2c(c(O)c1C/C=C(\C)CCC(=O)O)C(=O)OC2` [MPA, Mycophenolic acid], for which, in the assay on T-Jurkat cells, the half-maximal effective concentration (EC50) was found to be 924 ± 34 nM, the “SI selectivity index T-Jurkat (IC50/EC50)” value came out at 0.570 and the “IS internal selectivity (EC50 PBMCs / EC50 T-Jurkat)” value was 1.249. Besides, the IC50 with PBMCs came out at 18.73 ± 0.03 µM.
The matching figures for `COc1c(C)c2c(c(O)c1C/C=C(\C)CCC(=O)Oc1ccc3c(c1)OCO3)C(=O)OC2` [P1]: 2010 ± 42 nM, 0.533, 0.573 and 125.48 ± 0.025 µM.
The like results for `COC(=O)/C=C/c1ccc(OC(=O)CC/C(C)=C/Cc2c(O)c3c(c(C)c2OC)COC3=O)c(OC)c1` [MP7] were, in that order, 4923 ± 34 nM, 0.286, 1.571 and 30.43 ± 0.044 µM.
The matching figures for `C/C=C/c1ccc(OC(=O)CC/C(C)=C/Cc2c(O)c3c(c(C)c2OC)COC3=O)c(OC)c1` [MP9]: 1840 ± 43 nM, 1.070, 1.283 and 21.153 ± 0.015 µM.
For the molecule `COc1cc(C=O)ccc1OC(=O)CC/C(C)=C/Cc1c(O)c2c(c(C)c1OC)COC2=O` [MP4], in the assay on T-Jurkat cells, the EC50 amounted to 7509 ± 36 nM, the “SI selectivity index T-Jurkat (IC50/EC50)” value was 0.710 and the “IS internal selectivity (EC50 PBMCs / EC50 T-Jurkat)” value was determined as 0.386. In addition, in the assay with PBMCs, the 50% inhibitory concentration (IC50) was 23.484 ± 0.015 µM.
`C=CCc1ccc(OC(=O)CC/C(C)=C/Cc2c(O)c3c(c(C)c2OC)COC3=O)c(OC)c1` [MP8]: in the assay on T-Jurkat cells, the EC50 came out at 1740 ± 23 nM, the “SI selectivity index T-Jurkat (IC50/EC50)” value was 0.983 and the “IS internal selectivity (EC50 PBMCs / EC50 T-Jurkat)” value is listed as 0.665. Moreover, in the assay on PBMCs, the half-inhibitory concentration (IC50) came out at 17.782 ± 0.011 µM.
The like results for `COC(=O)/C=C/c1ccccc1OC(=O)CC/C(C)=C/Cc1c(O)c2c(c(C)c1OC)COC2=O` [P4] were, in that order, 3530 ± 45 nM, 0.470, 1.380 and 25.887 ± 0.017 µM.
